# In paper PMC9206137, “Synergistic anti-SARS-CoV-2 activity of repurposed anti-parasitic drug combinations” (BMC Pharmacology & Toxicology, 2022):
# Several values for one entry are separate records, joined by “and”; a condition that tells them apart may be missing. Identical values can stand only once.
# What was measured:
# [1] = tested on: SARS-CoV-2; test: Antiviral activity against SARS-CoV-2 in Vero E6 cells, plaque assay; assay type: cell-based; details: for IC50: Severe acute respiratory syndrome coronavirus 2, Vero C1008, MOI 0.01, 48 hours, single drug; for IC50 / %inhibition (plaque assay): Vero E6
# [2] = Cell viability assay (MTT) in Vero E6 cells; details: African green monkey
# Experimental: (§1) Subsequently, the cell viability was assessed using MTT dyes (Invitrogen) in duplicate (Supplementary file 1). The procedure was described elsewhere. The viability of drug-treated cells was expressed as percent cell viability relative to 0.5% DMSO-treated cells.
# [3] = tested on: SARS-CoV-2; test: Antiviral activity against SARS-CoV-2 in Vero E6 cells, one-step qRT-PCR (single drugs, two-drug combinations, synergy analysis); details: for %inhibition (qRT-PCR) / IC50: Vero E6; for %inhibition (qRT-PCR) / % inhibition: replicates; for % inhibition: Vero E6 cells; for IC50: read-out: IC50 (μM) qRT-PCR, MOI 0.01, 48 hours, single drug
# [4] = tested on: SARS-CoV-2; details: because of the expression of TMPRSS2; cited from earlier work
# [5] = tested on: Vero E6 cells; test: Cell viability assay (MTT) in Vero E6 cells; details: replicates; for %cell viability: Vero E6; for cell viability: Vero E6 cells
# Experimental: as §1
# [6] = tested on: SARS-CoV-2; test: microbe, parasite or virus in culture; assay type: cell-based; details: for % inhibition: Calu-3 cells
# [7] = Cell viability assay (MTT) in Calu-3 cells; details: human, Calu-3 cells
# Experimental: as §1
# [8] = tested on: Calu-3 cells; test: Cell viability assay (MTT) in Calu-3 cells; details: replicates; for %cell viability: Calu-3; for cell viability: Calu-3 cells
# Experimental: as §1
compound,measurement,setting,value
"CCN(CC)CCCC(C)Nc1ccnc2cc(Cl)ccc12 (stereo not drawn) [Chloroquine, chloroquine]",inhibition at 0.625 µM,"[1]; Severe acute respiratory syndrome coronavirus 2, Vero C1008, Vero E6, chloroquine 0.625 uM, replicates",50%
same,inhibition at 1.25 µM,"[1]; Severe acute respiratory syndrome coronavirus 2, Vero C1008, Vero E6, chloroquine 1.25 uM, replicates",61.4%
same,inhibition at 2.5 µM,"[1]; Severe acute respiratory syndrome coronavirus 2, Vero C1008, Vero E6, chloroquine 2.5 uM, replicates",70%
same,inhibition at 5 µM,"[1]; Severe acute respiratory syndrome coronavirus 2, Vero C1008, Vero E6, chloroquine 5 uM, replicates",85.1%
same,IC50,[1],0.83 µM
same,%inhibition (plaque assay),"[1]; chloroquine 0.15625 uM, replicates",5.00% and 10.00%
same,%inhibition (plaque assay),"[1]; chloroquine 0.3125 uM, replicates",15.00% and 6.06% and 11.00%
same,%inhibition (plaque assay),"[1]; chloroquine 0.625 uM, replicates",55.50%
same,%inhibition (plaque assay),"[1]; chloroquine 1.25 uM, replicates",73.20% and 66.30%
same,%inhibition (plaque assay),"[1]; chloroquine 2.5 uM, replicates",75.00% and 69.50%
same,%inhibition (plaque assay),"[1]; chloroquine 5 uM, replicates",87.00% and 85.00%
same,"viability at 48 h, 40 uM","[2]; %cell viability, Vero E6, chloroquine 40 uM, replicates",78.5%
same,"viability at 48 h, 160 uM","[2]; %cell viability, Vero E6, chloroquine 160 uM, replicates",34.5%
same,%inhibition (qRT-PCR),[3]; chloroquine 0.15625 uM,14.20% and 15.40% and 13.50%
same,%inhibition (qRT-PCR),[3]; chloroquine 0.3125 uM,29.59% and 23.98%
same,%inhibition (qRT-PCR),[3]; chloroquine 0.625 uM,47.22% and 54.26% and 49.79%
same,%inhibition (qRT-PCR),[3]; chloroquine 1.25 uM,51.48% and 58.46% and 54.05%
same,%inhibition (qRT-PCR),[3]; chloroquine 2.5 uM,67.75% and 70.05% and 70.73%
same,%inhibition (qRT-PCR),[3]; chloroquine 5 uM,88.11% and 84.26% and 88.40%
same,% inhibition,[3]; Chloroquine 0.2125 uM alone,32.17% and 30.26% and 30.74%
same,% inhibition,[3]; Chloroquine 0.425 uM alone,35.38% and 45.66% (2×)
same,% inhibition,[3]; Chloroquine 0.85 uM alone,58.25% and 55.25% and 59.67%
same,% inhibition,[3]; Chloroquine 1.7 uM alone,76.18% and 70.48% and 73.21%
same,IC50,[3],0.89 µM
same,inhibition of SARS-CoV-2 in human lung cells,[4],could not inhibit
"O=C(Nc1ccc([N+](=O)[O-])cc1Cl)c1cc(Cl)ccc1O [Niclosamide, niclosamide]",inhibition at 0.00390625 µM,"[1]; Severe acute respiratory syndrome coronavirus 2, Vero C1008, Vero E6, niclosamide 0.00390625 uM, replicates",11.5%
same,inhibition at 0.015625 µM,"[1]; Severe acute respiratory syndrome coronavirus 2, Vero C1008, Vero E6, niclosamide 0.015625 uM, replicates",23.2%
same,inhibition at 0.03125 µM,"[1]; Severe acute respiratory syndrome coronavirus 2, Vero C1008, Vero E6, niclosamide 0.03125 uM, replicates",23.7%
same,inhibition at 0.0625 µM,"[1]; Severe acute respiratory syndrome coronavirus 2, Vero C1008, Vero E6, niclosamide 0.0625 uM, replicates",40.1%
same,inhibition at 0.125 µM,"[1]; Severe acute respiratory syndrome coronavirus 2, Vero C1008, Vero E6, niclosamide 0.125 uM, replicates",84.6%
same,IC50,[1],0.049 µM
same,%inhibition (plaque assay),"[1]; niclosamide 0.00390625 uM, replicates",9.45% and 9.72%
same,%inhibition (plaque assay),"[1]; niclosamide 0.0078125 uM, replicates",5.39% and 21.29% and 14.01%
same,%inhibition (plaque assay),"[1]; niclosamide 0.015625 uM, replicates",25.26% and 23.12%
same,%inhibition (plaque assay),"[1]; niclosamide 0.03125 uM, replicates",28.44% and 31.03%
same,%inhibition (plaque assay),"[1]; niclosamide 0.0625 uM, replicates",40.15% and 40.02%
same,%inhibition (plaque assay),"[1]; niclosamide 0.125 uM, replicates",97.12% and 94.56%
same,%cell viability,[5]; niclosamide 0.00390625 uM,92.84%
same,%cell viability,[5]; niclosamide 0.0078125 uM,91.90%
same,%cell viability,[5]; niclosamide 0.015625 uM,92.98%
same,%cell viability,[5]; niclosamide 0.03125 uM,90.36%
same,%cell viability,[5]; niclosamide 0.0625 uM,90.95%
same,%cell viability,[5]; niclosamide 0.125 uM,88.11%
same,%cell viability,[5]; niclosamide 0.25 uM,54.41%
same,%cell viability,[5]; niclosamide 0.5 uM,25.91%
same,cell viability,[5]; Niclosamide 0.01125 uM alone,91.66 and 92.98
same,cell viability,[5]; Niclosamide 0.0225 uM alone,92.73 and 90.36
same,cell viability,[5]; Niclosamide 0.045 uM alone,94.97 and 90.95
same,cell viability,[5]; Niclosamide 0.09 uM alone,89.48 and 90.50
same,CC50 at 48 h,[2]; Vero E6 cells,290 nM
same,"viability at 48 h, 0.00390625 uM","[2]; Vero E6 cells, %cell viability, Vero E6, niclosamide 0.00390625 uM, replicates",98.6%
same,"viability at 48 h, 0.0078125 uM","[2]; Vero E6 cells, %cell viability, Vero E6, niclosamide 0.0078125 uM, replicates",97.7%
same,"viability at 48 h, 0.015625 uM","[2]; Vero E6 cells, %cell viability, Vero E6, niclosamide 0.015625 uM, replicates",91.7%
same,"viability at 48 h, 0.03125 uM","[2]; Vero E6 cells, %cell viability, Vero E6, niclosamide 0.03125 uM, replicates",92.7%
same,"viability at 48 h, 0.0625 uM","[2]; Vero E6 cells, %cell viability, Vero E6, niclosamide 0.0625 uM, replicates",95%
same,"viability at 48 h, 0.125 uM","[2]; Vero E6 cells, %cell viability, Vero E6, niclosamide 0.125 uM, replicates",91.3%
same,"viability at 48 h, 0.25 uM","[2]; Vero E6 cells, %cell viability, Vero E6, niclosamide 0.25 uM, replicates",59.2%
same,"viability at 48 h, 0.5 uM","[2]; Vero E6 cells, %cell viability, Vero E6, niclosamide 0.5 uM, replicates",20.1%
same,SI,[6]; Calu-3,28.1
same,%inhibition (plaque assay),"[6]; Calu-3, niclosamide 0.039063 uM, replicates",23.81% (2×) and 35.24%
same,%inhibition (plaque assay),"[6]; Calu-3, niclosamide 0.078125 uM, replicates",35.24% and 39.05%
same,%inhibition (plaque assay),"[6]; Calu-3, niclosamide 0.15625 uM, replicates",35.24% and 42.86% and 20.00%
same,%inhibition (plaque assay),"[6]; Calu-3, niclosamide 0.3125 uM, replicates",69.52% and 61.90%
same,%inhibition (plaque assay),"[6]; Calu-3, niclosamide 0.625 uM, replicates",61.90%
same,%inhibition (plaque assay),"[6]; Calu-3, niclosamide 1.25 uM, replicates",69.52% and 80.95%
same,% inhibition,"[6]; Niclosamide 0.05 uM alone, replicates",33.33% and 13.33% (2×)
same,% inhibition,"[6]; Niclosamide 0.10 uM alone, replicates",40.00%
same,% inhibition,"[6]; Niclosamide 0.40 uM alone, replicates",70.00%
same,inhibition at 0.039063 µM,"[6]; Severe acute respiratory syndrome coronavirus 2, Calu-3, Calu-3, niclosamide 0.039063 uM, replicates, read-out: %inhibition (plaque assay)",31.4%
same,inhibition at 0.078125 µM,"[6]; Severe acute respiratory syndrome coronavirus 2, Calu-3, Calu-3, niclosamide 0.078125 uM, replicates, read-out: %inhibition (plaque assay)",31.4%
same,inhibition at 0.1 µM,"[6]; Severe acute respiratory syndrome coronavirus 2, Calu-3, Calu-3, niclosamide 0.1 uM alone",46.7 ± 6.67%
same,inhibition at 0.2 µM,"[6]; Severe acute respiratory syndrome coronavirus 2, Calu-3, Calu-3, niclosamide 0.2 uM alone",53.3 ± 6.67%
same,inhibition at 0.3125 µM,"[6]; Severe acute respiratory syndrome coronavirus 2, Calu-3, Calu-3, niclosamide 0.3125 uM, replicates, read-out: %inhibition (plaque assay)",73.3%
same,inhibition at 0.4 µM,"[6]; Severe acute respiratory syndrome coronavirus 2, Calu-3, Calu-3, niclosamide 0.4 uM alone",61.1 ± 8.39%
same,inhibition at 0.625 µM,"[6]; Severe acute respiratory syndrome coronavirus 2, Calu-3, Calu-3, niclosamide 0.625 uM, replicates, read-out: %inhibition (plaque assay)",65.7%
same,inhibition at 1.25 µM,"[6]; Severe acute respiratory syndrome coronavirus 2, Calu-3, Calu-3, niclosamide 1.25 uM, replicates, read-out: %inhibition (plaque assay)",73.3%
same,inhibition at 0.1 µM,"[6]; Severe acute respiratory syndrome coronavirus 2, Calu-3, Calu-3 cells, Niclosamide 0.10 uM alone, replicates",53.3%
same,inhibition at 0.2 µM,"[6]; Severe acute respiratory syndrome coronavirus 2, Calu-3, Calu-3 cells, Niclosamide 0.20 uM alone, replicates",53.3%
same,inhibition at 0.4 µM,"[6]; Severe acute respiratory syndrome coronavirus 2, Calu-3, Calu-3 cells, Niclosamide 0.40 uM alone, replicates",60%
same,IC50,"[6]; Severe acute respiratory syndrome coronavirus 2, Calu-3, 500 TCID50, plaque assay, single drug",200 nM
same,CC50 at 48 h,[7],5620 nM
same,"viability at 48 h, 0.019531 uM","[7]; %cell viability, Calu-3, niclosamide 0.019531 uM, replicates",92.2%
same,"viability at 48 h, 0.039063 uM","[7]; %cell viability, Calu-3, niclosamide 0.039063 uM, replicates",102%
same,"viability at 48 h, 0.078125 uM","[7]; %cell viability, Calu-3, niclosamide 0.078125 uM, replicates",109%
same,"viability at 48 h, 0.15625 uM","[7]; %cell viability, Calu-3, niclosamide 0.15625 uM, replicates",100%
same,"viability at 48 h, 0.3125 uM","[7]; %cell viability, Calu-3, niclosamide 0.3125 uM, replicates",100%
same,"viability at 48 h, 0.625 uM","[7]; %cell viability, Calu-3, niclosamide 0.625 uM, replicates",107%
same,"viability at 48 h, 1.25 uM","[7]; %cell viability, Calu-3, niclosamide 1.25 uM, replicates",96.5%
same,"viability at 48 h, 2.5 uM","[7]; %cell viability, Calu-3, niclosamide 2.5 uM, replicates",85%
same,"viability at 48 h, 5 uM","[7]; %cell viability, Calu-3, niclosamide 5 uM, replicates",59.4%
same,%cell viability,[8]; niclosamide 0.019531 uM,102.92%
same,%cell viability,[8]; niclosamide 0.039063 uM,104.17%
same,%cell viability,[8]; niclosamide 0.078125 uM,109.86%
same,%cell viability,[8]; niclosamide 0.15625 uM,107.64%
same,%cell viability,[8]; niclosamide 0.3125 uM,99.17%
same,%cell viability,[8]; niclosamide 0.625 uM,104.86%
same,%cell viability,[8]; niclosamide 1.25 uM,97.36%
same,%cell viability,[8]; niclosamide 2.5 uM,82.64%
same,%cell viability,[8]; niclosamide 5 uM,54.44%
same,cell viability,[8]; Niclosamide 0.05 uM alone,96.54 and 92.66
same,cell viability,[8]; Niclosamide 0.10 uM alone,89.85 and 85.75
same,cell viability,[8]; Niclosamide 0.20 uM alone,98.27 and 86.39
same,cell viability,[8]; Niclosamide 0.40 uM alone,103.02 and 98.49
same,%inhibition (qRT-PCR),[3]; niclosamide 0.00390625 uM,21.23% and 16.04% and 7.08%
same,%inhibition (qRT-PCR),[3]; niclosamide 0.0078125 uM,27.36% and 22.17% and 24.53%
same,%inhibition (qRT-PCR),[3]; niclosamide 0.015625 uM,29.25% and 17.92% and 28.30%
same,%inhibition (qRT-PCR),[3]; niclosamide 0.03125 uM,29.72% and 33.96% and 20.28%
same,%inhibition (qRT-PCR),[3]; niclosamide 0.0625 uM,52.36% and 36.32% and 72.26%
same,%inhibition (qRT-PCR),[3]; niclosamide 0.125 uM,95.05% and 87.83% and 93.92%
same,% inhibition,[3]; Niclosamide 0.01125 uM alone,6.05% and 30.26% and 19.89% and 3.41%
same,% inhibition,[3]; Niclosamide 0.0225 uM alone,31.70% and 37.15% and 50.00%
same,% inhibition,[3]; Niclosamide 0.045 uM alone,62.37% and 59.41% and 53.57%
same,% inhibition,[3]; Niclosamide 0.09 uM alone,75.85% and 79.12% and 97.76% and 97.32%
same,IC50,[3],0.043 µM
